Structures can show the parent of a compound that is named as a salt.
Assays:
[1] = biological target: T1, Rat FAAH-1 (Rattus norvegicus, UniProt P97612); assay: Rat FAAH-1 assay (Assay Method 2), 3H-anandamide hydrolysis in cell homogenate; assay type: biochemical
T1 construct: expressed in transfected cells
T1 sequence (P97612 1-579): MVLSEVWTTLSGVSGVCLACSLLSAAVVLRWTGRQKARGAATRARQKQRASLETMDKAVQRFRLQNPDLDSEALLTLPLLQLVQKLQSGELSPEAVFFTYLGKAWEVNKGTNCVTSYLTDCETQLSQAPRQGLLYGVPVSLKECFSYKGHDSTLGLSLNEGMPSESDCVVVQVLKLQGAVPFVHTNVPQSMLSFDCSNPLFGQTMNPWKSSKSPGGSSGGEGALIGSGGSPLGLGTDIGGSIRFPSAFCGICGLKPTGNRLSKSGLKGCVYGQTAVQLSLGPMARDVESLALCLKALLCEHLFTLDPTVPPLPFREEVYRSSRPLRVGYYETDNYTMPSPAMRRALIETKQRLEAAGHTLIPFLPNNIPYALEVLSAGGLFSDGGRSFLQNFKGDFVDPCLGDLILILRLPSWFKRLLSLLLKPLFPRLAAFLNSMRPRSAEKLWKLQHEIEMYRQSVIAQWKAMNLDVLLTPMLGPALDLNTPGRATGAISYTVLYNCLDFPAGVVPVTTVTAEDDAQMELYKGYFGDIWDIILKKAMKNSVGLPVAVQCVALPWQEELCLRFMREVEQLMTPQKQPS
Experimental: A. Transfection of Cells with Rat FAAH-1
(§1) A 10-cm tissue culture dish with a confluent monolayer of SK-N-MC cells was split 2 days (d) prior to transfection. Using sterile technique, the media was removed and the cells were detached from the dish by the addition of trypsin. One fifth of the cells were then placed onto a new 10-cm dish. Cells were grown in a 37° C. incubator with 5% CO2 in Minimal Essential Media Eagle with 10% Fetal Bovine Serum. After 2 d, cells were approximately 80% confluent. These cells were removed from the dish with trypsin and pelleted in a clinical centrifuge. The pellet was re-suspended in 400 μL complete media and transferred to an electroporation cuvette with a 0.4 cm gap between the electrodes. Supercoiled rat FAAH cDNA (1 μg) was added to the cells and mixed. The voltage for the electroporation was set at 0.25 kV, and the capacitance was set at 960 μF. After electroporation, the cells were diluted into complete media (10 mL) and plated onto four 10-cm dishes. Because of the variability in the efficiency of electroporation, four different concentrations of cells were plated. The ratios used were 1:20, 1:10, and 1:5, with the remainder of the cells being added to the fourth dish. The cells were allowed to recover for 24 h before adding the selection media (complete media with 600 μg/mL G418). After 10 d, dishes were analyzed for surviving colonies of cells. Dishes with well-isolated colonies were used. Cells from individual colonies were isolated and tested.
(§2) The assay mixture consisted of 50 μL of the cell homogenate, 10 μL of the test compound, and 40 μL of anandamide [1-^3H-ethanolamine] (^3H-AEA, Perkin-Elmer, 10.3 Ci/mmol), which was added last, for a final tracer concentration of 80 nM. The reaction mixture was incubated at rt for 1 h. During the incubation, 96-well Multiscreen filter plates (catalog number MAFCNOB50; Millipore, Bedford, Mass., USA) were loaded with 25 μL of activated charcoal (Multiscreen column loader, catalog number MACL09625, Millipore) and washed once with 100 μL of MeOH. Also during the incubation, 96-well DYNEX MicroLite plates (catalog number NL510410) were loaded with 100 μL of MicroScint40 (catalog number 6013641, Packard Bioscience, Meriden, Conn., USA). After the 1 h incubation, 60 μL of the reaction mixture were transferred to the charcoal plates, which were then assembled on top of the DYNEX plates using Centrifuge Alignment Frames (catalog number MACF09604, Millipore). The unbound labeled ethanolamine was centrifuged through to the bottom plate (5 min at 2000 rpm), which was preloaded with the scintillant, as described above. The plates were sealed and left at rt for 1 h before counting on a Hewlett Packard TopCount.
(§3) Where activity is shown as greater than (>) a particular value, the value is the solubility limit of the compound in the assay medium or the highest concentration tested in the assay.

[2] = biological target: T2, FAAH (Homo sapiens, UniProt O00519); assay: Human FAAH assay (Assay Method 1), 3H-anandamide hydrolysis in cell homogenate; assay type: biochemical; design: expressed in transfected cells; alternatively T84 frozen cell pellets (endogenous FAAH)
T2 sequence (O00519 1-579): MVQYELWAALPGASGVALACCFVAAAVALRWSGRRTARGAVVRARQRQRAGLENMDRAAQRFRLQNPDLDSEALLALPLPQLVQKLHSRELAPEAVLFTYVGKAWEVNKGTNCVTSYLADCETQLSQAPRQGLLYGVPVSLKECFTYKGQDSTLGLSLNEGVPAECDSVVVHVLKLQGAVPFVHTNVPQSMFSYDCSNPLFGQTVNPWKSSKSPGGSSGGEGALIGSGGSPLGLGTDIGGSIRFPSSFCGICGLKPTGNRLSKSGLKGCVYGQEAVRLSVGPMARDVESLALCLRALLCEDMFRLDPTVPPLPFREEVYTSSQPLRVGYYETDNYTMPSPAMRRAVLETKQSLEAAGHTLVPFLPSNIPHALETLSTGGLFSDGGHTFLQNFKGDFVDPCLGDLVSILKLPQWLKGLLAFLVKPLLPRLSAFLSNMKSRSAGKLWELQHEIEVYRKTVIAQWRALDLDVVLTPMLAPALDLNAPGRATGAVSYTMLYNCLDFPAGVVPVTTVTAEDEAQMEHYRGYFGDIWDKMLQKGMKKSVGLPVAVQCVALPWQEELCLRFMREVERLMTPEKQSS
Experimental: A. Transfection of Cells with Human FAAH
as §1, with “Supercoiled human” for “Supercoiled rat”
as §2, with “[1-3H-ethanolamine]” for “[1-^3H-ethanolamine]”
as §3

Row | IC50 [1] [nM] | IC50 [2] [nM] | SMILES
1 | 130 | 180 | N[C@@H](CNc1cc(-c2ccc(C(F)(F)F)c(Cl)c2)ncn1)c1ccc(SC(F)(F)F)cc1 [Example 61, (1R)—N^2-[6-(3-Chloro-4-trifluoromethyl-phenyl)-pyrimidin-4-yl]-1-(4-trifluoromethylsulfanyl-phenyl)-ethane-1,2-diamine]
2 | 11 | 30 | N[C@@H](CNc1cc(-c2ccc(C(F)(F)F)c(Cl)c2)ncn1)c1ccc2c(c1)OC(F)(F)O2 [Example 32, (1R)—N^2-[6-(3-Chloro-4-trifluoromethyl-phenyl)-pyrimidin-4-yl]-1-(2,2-difluoro-benzo[1,3]dioxol-5-yl)-ethane-1,2-diamine]
3 | 71 | 44 | N[C@@H](CNc1cc(-c2ccc3c(C(F)(F)F)noc3c2)ncn1)c1ccccc1 [Example 13, (1R)-1-Phenyl-N^2-[6-(3-(trifluoromethyl)-benzo[d]isoxazol-6-yl)pyrimidin-4-yl]-ethane-1,2-diamine hydrochloride acid salt]
4 | 70 | 80 | N[C@@H](CNc1cc(-c2ccc(C(F)(F)F)c(Cl)c2)ncn1)c1ccc(Cl)c(F)c1 [Example 45, (1R)—N^2-1-(4-Chloro-3-fluoro-phenyl)-[6-(3-chloro-4-trifluoromethyl-phenyl)-pyrimidin-4-yl]-ethane-1,2-diamine]
5 | 770 | 630 | N[C@H](CNc1cc(-c2ccc(C(F)(F)F)c(Cl)c2)ncn1)c1ccc2c(c1)OC(F)(F)O2 [Example 31, (1S)—N^2-[6-(3-Chloro-4-trifluoromethyl-phenyl)-pyrimidin-4-yl]-1-(2,2-difluoro-benzo[1,3]dioxol-5-yl)-ethane-1,2-diamine]
6 | 52 | 160 | N[C@@H](CNc1cc(-c2ccc(C(F)(F)F)c(Cl)c2)ncn1)c1ccc(C(F)(F)F)cc1 [Example 30, (1R)—N^2-[6-(3-Chloro-4-trifluoromethyl-phenyl)-pyrimidin-4-yl]-1-(4-trifluoromethyl-phenyl)-ethane-1,2-diamine]
7 | 2000 | 130 | N[C@@H](CNc1cc(-c2ccc(OCC(F)(F)F)cc2)ncn1)c1ccccc1 [Example 20, (1R)-1-Phenyl-N^2-{6-[4-(2,2,2-trifluoroethoxy)phenyl]pyrimidin-4-yl}ethane-1,2-diamine hydrochloride acid salt]
8 | 500 | 90 | N[C@@H](CNc1cc(-c2ccc(Cl)c(Cl)c2)ncn1)c1ccccc1 [Example 16, (1R)—N^2-[6-(3,4-Dichlorophenyl)pyrimidin-4-yl]-1-phenylethane-1,2-diamine hydrochloride acid salt]

The next lines start with the compound.

Row | SMILES | IC50 [1] [nM] | IC50 [2] [nM]
9 | N[C@@H](CNc1cc(-c2cc3cc(OC(F)(F)F)ccc3s2)ncn1)c1ccccc1 [Example 25, (1R)-1-Phenyl-N^2-{6-[5-(trifluoromethoxy)-1-benzothiophen-2-yl]pyrimidin-4-yl}ethane-1,2-diamine hydrochloride acid salt] | 370 | 80
10 | N[C@@H](CNc1cc(-c2ccc(Cl)cc2)ncn1)c1ccccc1 [Example 14, (1R)—N^2-[6-(4-Chlorophenyl)pyrimidin-4-yl]-1-phenylethane-1,2-diamine hydrochloride acid salt] | > 10000 | 1000
11 | CCSc1ccc(-c2cc(NC[C@H](N)c3ccccc3)ncn2)cc1 [Example 22, (1R)—N^2-{6-[4-(Ethylsulfanyl)phenyl]pyrimidin-4-yl}-1-phenylethane-1,2-diamine hydrochloride acid salt] | 240 | 7
12 | CN(C)S(=O)(=O)c1ccc(-c2cc(NC[C@H](N)c3ccccc3)ncn2)cc1 [Example 23, 4-(6-{[(2R)-2-Amino-2-phenylethyl]amino}pyrimidin-4-yl)-N,N-dimethylbenzenesulfonamide hydrochloride acid salt] | 1600 | 113
13 | N[C@@H](CNc1cc(-c2ccc(C(F)(F)F)c(Cl)c2)ncn1)c1ccc(F)c(Cl)c1 [Example 47, (1R)—N^2-1-(3-Chloro-4-fluoro-phenyl)-[6-(3-chloro-4-trifluoromethyl-phenyl)-pyrimidin-4-yl]-ethane-1,2-diamine] | 115 | 120
14 | CCOc1ccc(-c2cc(NC[C@H](N)c3ccccc3)ncn2)cc1C(F)(F)F [Example 10, (1R)—N^2-{6-[4-Ethoxy-3-(trifluoromethyl)phenyl]pyrimidin-4-yl}-1-phenylethane-1,2-diamine hydrochloride acid salt] | 84 | 26
